Source: patent publication US20040185094A1, “Pharmaceutical” (priority 2000, published 2004)
Entries after “also recorded” stand apart in the source; their conditions may differ.

How the values were obtained:
rabbit corpus cavernosum [1] = test: Effect on electrical field stimulation (EFS)-induced relaxation; format: cell-based
Experimental: Male New Zealand White rabbits (2.0-3.0 Kg) were killed by cervical dislocation. The abdominal cavity was opened and the penis excised, starting at the base of the organ at the pelvic bones. The corpus cavernosum was carefully dissected free from the surrounding tunica albuginea—2 tissue strips, approximately 10 mm×3 mm×2 mm in size, were obtained from each penis. The dissection was carried out in Krebs Ringer Solution. Tissues were used on the day of harvest.
The strips of corpus cavernosum and were mounted with surgical suture in 5 ml Wesley & Co. organ baths, and immersed in Kreb's solution maintained at 37° C. and aerated with 5% CO2/95% O2 to attain pH 7.4. The suture was connected to a force displacement transducer (Maywood Instruments Ltd.) and changes in isometric tension were recorded on the DART in vitro computer package. The tissues were put under an initial resting tension of 1.5 g and allowed to equilibrate for 1 hour. During equilibration, the tissues were rinsed at 5 ml/min. The approximate tissue tension after equilibration was 1 g. The tissues were then sensitised to contraction with phenylephrine (PE) (10 μM) and KCl (120 mM), and relaxation with sodium nitroprusside (SNP) (100 μM).
Tissues were bathed in “normal” Kreb's containing 5 μM guanethidine and 1 μM atropine, to block NA release and receptors respectively. EFS was delivered by a MS3 stimulator connected to 2 platinum electrodes which were placed at the top and bottom of the organ chambers. EFS parameters are as follows: Voltage=45-65V, Frequency=2-32 Hz, Pulse Width=0.2 ms, Train Duration=10 s. […] An EFS curve involved stimulating PE-contracted tissues at 2 Hz, 4 Hz, 8 Hz, 16 Hz and 32 Hz, and the degree of relaxation was measured by taking the minimum reading from the maximum reading obtained over a 30 s period. […]
For each dose response curve, the relaxation responses are expressed as a percentage of the PE-induced contraction. […] For EFS response curves, the degree of relaxation was expressed as a percentage of the PE-induced contraction. […]

rabbit aorta = test: Selectivity of EBIO for corpus cavernosum over cardiovascular tissue (isolated aorta); format: cell-based; details: in vitro
Experimental: PE (1 μM) or 80 mM K^+ contracted rabbit aorta sections were subjected to half-log unit cumulative additions of EBIO (10 nM-1 mM) with approximately 10 minute intervals between each addition.
For each dose response curve, the relaxation responses are expressed as a percentage of the PE-induced contraction. The mean values±s.e. mean are then plotted against log[drug] concentration. Sigmoidal curves were fitted to the data using Origin curve fitting computer package. For the purpose of curve fitting, the minimum relaxation response is constrained to 0% and the maximum relaxation response is allowed to free fit. For EFS response curves, the degree of relaxation was expressed as a percentage of the PE-induced contraction. These values were then plotted against the frequency of stimulation.

rabbit corpus cavernosum [2] = test: Effect of EBIO on cGMP-mediated (SNP-induced) relaxation; format: cell-based; details: EBIO 50 μM; SNP dose response
rabbit corpus cavernosum [3] = test: Mechanism of EBIO-induced relaxation (L-NOARG incubation, endothelium removal); format: cell-based; details: PE (10 μM) contracted
rabbit corpus cavernosum [4] = test: Direct relaxant effect of EBIO on contracted corpus cavernosum strips in organ baths; format: cell-based

Compound | effect on EFS-induced relaxation of PE-contracted corpus cavernosum (rabbit corpus cavernosum [1]; EBIO 50 μM, 2-32 Hz) | effect on blood pressure in vivo (Blood pressure in vivo) | concentrations at which a relaxant effect on rabbit aorta occurs (rabbit aorta) [µM] | relaxant effect on rabbit aorta (rabbit aorta; PE (1 μM) or 80 mM K+ contracted, concentrations up to 100 μM) | effect on SNP-induced relaxation of PE-contracted corpus cavernosum (rabbit corpus cavernosum [2]) | EBIO-induced relaxation in the presence of L-NOARG (NOS inhibitor) (rabbit corpus cavernosum [3]; L-NOARG) | EBIO-induced relaxation in endothelium deprived corpus cavernosum (rabbit corpus cavernosum [3]; endothelium removed) | IC20 (rabbit corpus cavernosum [4]; Oryctolagus cuniculus, relaxation of rabbit corpus cavernosum) [µM] | relaxation of PE-contracted rabbit corpus cavernosum (rabbit corpus cavernosum [4]; PE (10 μM) contracted, EBIO 10 nM-1 mM cumulative, in vitro) | concentrations at which basal tone is suppressed (rabbit corpus cavernosum [4]; rabbit corpus cavernosum basal tone) [µM] | effect of ChTX on EBIO-induced potentiation of EFS-induced relaxation (rabbit corpus cavernosum [1]; ChTX 100 nM with EBIO 50 μM) | attenuation of endogenous NO-mediated (EFS-induced) relaxation (rabbit corpus cavernosum [1]; ChTX 100 nM, across the frequency range)
CCn1c(=O)[nH]c2ccccc21 [EBIO, 1-ethyl-2-benzimidazolinone] | greatly potentiates; also recorded: enhanced | no effect | ≥ 100 | no relaxant effect | potentiates; also recorded: enhanced | still observed | still observed; also recorded: not affected | ~50 | concentration-dependent relaxation; also recorded: concentration dependent relaxation | ≥ 10 | – | –
charybdotoxin [ChTX] | – | – | – | – | – | – | – | – | – | – | caused a reduction; also recorded: sensitive | up to 30%
